Measurements reported in ChEMBL document CHEMBL4507300 (2021).

Assays:
[1] = biological target: Phosphatidylinositol 4,5-bisphosphate 3-kinase catalytic subunit gamma isoform (Homo sapiens) (UniProt P48736); conditions: Compound concentration 1000.0 nM
[2] = biological target: Phosphatidylinositol 5-phosphate 4-kinase type-2 gamma (Homo sapiens) (UniProt Q8TBX8); conditions: Compound concentration 1000.0 nM
[3] = biological target: Mitotic checkpoint serine/threonine-protein kinase BUB1 (Homo sapiens) (UniProt O43683); conditions: Compound concentration 1000.0 nM
[4] = biological target: Dual specificity protein kinase CLK3 (Homo sapiens) (UniProt P49761); conditions: Compound concentration 1000.0 nM
[5] = tested on: Phosphatidylinositol 4,5-bisphosphate 3-kinase catalytic subunit alpha isoform (Homo sapiens), P42336 [H1047Y]; conditions: Compound concentration 1000.0 nM
[6] = biological target: Ribosomal protein S6 kinase alpha-2 (Homo sapiens) (UniProt Q15349); conditions: Compound concentration 1000.0 nM
[7] = biological target: Serine/threonine-protein kinase ICK (Homo sapiens) (UniProt Q9UPZ9); conditions: Compound concentration 1000.0 nM
[8] = biological target: Dual specificity tyrosine-phosphorylation-regulated kinase 2 (Homo sapiens) (UniProt Q92630); conditions: Compound concentration 1000.0 nM
Sequence of Dual specificity tyrosine-phosphorylation-regulated kinase 2 (Homo sapiens) (Q92630 whole entry): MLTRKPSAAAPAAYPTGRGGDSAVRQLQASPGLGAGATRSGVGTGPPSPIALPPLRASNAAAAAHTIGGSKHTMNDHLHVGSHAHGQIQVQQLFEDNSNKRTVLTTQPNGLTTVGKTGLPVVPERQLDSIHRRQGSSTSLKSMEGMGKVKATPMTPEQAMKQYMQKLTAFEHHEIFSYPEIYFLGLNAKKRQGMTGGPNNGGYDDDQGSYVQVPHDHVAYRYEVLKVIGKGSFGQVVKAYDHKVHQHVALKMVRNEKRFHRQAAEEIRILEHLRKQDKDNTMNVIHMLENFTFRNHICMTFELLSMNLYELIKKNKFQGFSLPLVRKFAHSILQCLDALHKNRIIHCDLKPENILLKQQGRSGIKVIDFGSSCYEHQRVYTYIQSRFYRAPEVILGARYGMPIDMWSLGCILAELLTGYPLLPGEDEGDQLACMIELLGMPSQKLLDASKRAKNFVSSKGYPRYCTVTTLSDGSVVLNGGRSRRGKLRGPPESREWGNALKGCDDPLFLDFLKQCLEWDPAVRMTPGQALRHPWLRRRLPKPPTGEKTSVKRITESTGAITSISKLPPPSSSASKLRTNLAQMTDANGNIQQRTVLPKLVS

[9] = biological target: Mitogen-activated protein kinase kinase kinase 10 (Homo sapiens) (UniProt Q02779); conditions: Compound concentration 1000.0 nM
[10] = biological target: Mast/stem cell growth factor receptor Kit (Homo sapiens) (UniProt P10721); conditions: Compound concentration 1000.0 nM
[11] = biological target: 5-hydroxytryptamine receptor 2C (Homo sapiens) (UniProt P28335); conditions: Compound concentration 10.0 uM
Sequence of 5-hydroxytryptamine receptor 2C (Homo sapiens) (P28335 whole entry): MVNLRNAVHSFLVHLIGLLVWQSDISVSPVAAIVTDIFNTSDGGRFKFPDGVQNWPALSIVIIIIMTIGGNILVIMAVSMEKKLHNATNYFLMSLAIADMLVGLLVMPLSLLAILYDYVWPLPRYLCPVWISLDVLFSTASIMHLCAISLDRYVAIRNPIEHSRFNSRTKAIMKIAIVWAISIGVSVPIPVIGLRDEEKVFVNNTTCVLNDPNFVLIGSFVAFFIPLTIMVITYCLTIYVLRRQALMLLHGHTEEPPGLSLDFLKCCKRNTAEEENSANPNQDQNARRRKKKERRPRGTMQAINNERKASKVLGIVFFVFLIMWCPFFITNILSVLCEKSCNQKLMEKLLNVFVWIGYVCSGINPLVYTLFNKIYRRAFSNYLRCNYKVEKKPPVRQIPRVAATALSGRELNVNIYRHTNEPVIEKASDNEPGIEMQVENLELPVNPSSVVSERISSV

[12] = tested on: ALK tyrosine kinase receptor (Homo sapiens), Q9UM73 [C1156Y]; conditions: Compound concentration 1000.0 nM
[13] = biological target: Sodium-dependent serotonin transporter (Homo sapiens, UniProt P31645); conditions: Compound concentration 10.0 uM
[14] = biological target: cAMP-dependent protein kinase catalytic subunit PRKX (Homo sapiens) (UniProt P51817); conditions: Compound concentration 1000.0 nM
[15] = tested on: Proto-oncogene tyrosine-protein kinase receptor Ret (Homo sapiens), P07949 [V804L]; conditions: Compound concentration 1000.0 nM
[16] = tested on: Tyrosine-protein kinase ABL1 (Homo sapiens), P00519 [H396P]; conditions: Compound concentration 1000.0 nM
[17] = biological target: Cyclin-dependent kinase 7 (Homo sapiens) (UniProt P50613); conditions: Compound concentration 1000.0 nM
[18] = biological target: Mitogen-activated protein kinase kinase kinase 1 (Homo sapiens) (UniProt Q13233); conditions: Compound concentration 1000.0 nM
[19] = biological target: D(1B) dopamine receptor (Homo sapiens) (UniProt P21918); conditions: Compound concentration 10.0 uM
[20] = biological target: Tyrosine-protein kinase Srms (Homo sapiens) (UniProt Q9H3Y6); conditions: Compound concentration 1000.0 nM
Sequence of Tyrosine-protein kinase Srms (Homo sapiens) (Q9H3Y6 whole entry): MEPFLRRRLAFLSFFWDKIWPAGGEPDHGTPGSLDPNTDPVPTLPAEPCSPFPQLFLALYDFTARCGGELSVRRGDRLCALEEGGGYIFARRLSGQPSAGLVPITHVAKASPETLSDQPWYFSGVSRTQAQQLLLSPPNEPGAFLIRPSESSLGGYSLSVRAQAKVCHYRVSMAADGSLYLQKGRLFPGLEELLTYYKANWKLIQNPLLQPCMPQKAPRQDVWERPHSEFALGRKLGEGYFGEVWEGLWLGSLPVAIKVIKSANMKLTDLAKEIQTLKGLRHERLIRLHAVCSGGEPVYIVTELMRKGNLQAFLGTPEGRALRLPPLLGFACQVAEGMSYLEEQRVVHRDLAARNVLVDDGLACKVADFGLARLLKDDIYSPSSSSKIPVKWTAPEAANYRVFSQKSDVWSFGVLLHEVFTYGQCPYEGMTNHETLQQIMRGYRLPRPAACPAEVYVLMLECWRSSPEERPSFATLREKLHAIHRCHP

[21] = biological target: D(3) dopamine receptor (Homo sapiens) (UniProt P35462); conditions: Compound concentration 10.0 uM
[22] = biological target: Ankyrin repeat and protein kinase domain-containing protein 1 (Homo sapiens) (UniProt Q8NFD2); conditions: Compound concentration 1000.0 nM
[23] = biological target: Mitogen-activated protein kinase kinase kinase kinase 5 (Homo sapiens) (UniProt Q9Y4K4); conditions: Compound concentration 1000.0 nM
Sequence of Mitogen-activated protein kinase kinase kinase kinase 5 (Homo sapiens) (Q9Y4K4 whole entry, looked up, the tested form may be a part): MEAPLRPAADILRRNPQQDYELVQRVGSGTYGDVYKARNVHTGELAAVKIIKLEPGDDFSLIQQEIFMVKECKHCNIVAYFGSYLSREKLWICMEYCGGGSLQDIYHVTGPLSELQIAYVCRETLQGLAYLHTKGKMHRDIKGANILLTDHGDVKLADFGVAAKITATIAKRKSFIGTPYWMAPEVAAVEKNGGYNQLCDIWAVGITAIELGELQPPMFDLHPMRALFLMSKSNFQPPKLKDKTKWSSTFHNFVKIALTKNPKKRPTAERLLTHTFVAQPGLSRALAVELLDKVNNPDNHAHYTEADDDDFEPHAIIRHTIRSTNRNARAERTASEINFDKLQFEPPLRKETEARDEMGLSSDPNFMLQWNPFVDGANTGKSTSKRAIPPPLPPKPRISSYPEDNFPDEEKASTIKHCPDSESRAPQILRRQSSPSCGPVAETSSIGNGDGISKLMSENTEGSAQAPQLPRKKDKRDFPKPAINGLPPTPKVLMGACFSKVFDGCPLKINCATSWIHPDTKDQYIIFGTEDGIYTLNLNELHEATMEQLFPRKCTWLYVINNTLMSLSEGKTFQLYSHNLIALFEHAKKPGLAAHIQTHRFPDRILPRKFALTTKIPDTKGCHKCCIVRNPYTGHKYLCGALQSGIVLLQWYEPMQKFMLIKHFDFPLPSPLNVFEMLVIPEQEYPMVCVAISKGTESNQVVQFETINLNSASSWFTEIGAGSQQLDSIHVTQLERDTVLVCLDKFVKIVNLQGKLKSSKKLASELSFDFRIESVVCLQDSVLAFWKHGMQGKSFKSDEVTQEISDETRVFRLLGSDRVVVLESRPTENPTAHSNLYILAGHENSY

[24] = biological target: Phosphatidylinositol 4-phosphate 3-kinase C2 domain-containing subunit beta (Homo sapiens) (UniProt O00750); conditions: Compound concentration 1000.0 nM
[25] = tested on: Mast/stem cell growth factor receptor Kit (Homo sapiens), P10721 [V559D,V654A]; conditions: Compound concentration 1000.0 nM
[26] = biological target: Death-associated protein kinase 1 (Homo sapiens) (UniProt P53355); conditions: Compound concentration 1000.0 nM
[27] = biological target: Tyrosine-protein kinase ABL1 (Homo sapiens) (UniProt P00519); conditions: Compound concentration 1000.0 nM
[28] = tested on: Epidermal growth factor receptor (Homo sapiens), P00533 [UNDEFINED MUTATION]; conditions: Compound concentration 1000.0 nM
[29] = biological target: Serine/threonine-protein kinase tousled-like 1 (Homo sapiens) (UniProt Q9UKI8); conditions: Compound concentration 1000.0 nM
[30] = biological target: Vascular endothelial growth factor receptor 1 (Homo sapiens) (UniProt P17948); conditions: Compound concentration 1000.0 nM
Sequence of Vascular endothelial growth factor receptor 1 (Homo sapiens) (P17948 whole entry): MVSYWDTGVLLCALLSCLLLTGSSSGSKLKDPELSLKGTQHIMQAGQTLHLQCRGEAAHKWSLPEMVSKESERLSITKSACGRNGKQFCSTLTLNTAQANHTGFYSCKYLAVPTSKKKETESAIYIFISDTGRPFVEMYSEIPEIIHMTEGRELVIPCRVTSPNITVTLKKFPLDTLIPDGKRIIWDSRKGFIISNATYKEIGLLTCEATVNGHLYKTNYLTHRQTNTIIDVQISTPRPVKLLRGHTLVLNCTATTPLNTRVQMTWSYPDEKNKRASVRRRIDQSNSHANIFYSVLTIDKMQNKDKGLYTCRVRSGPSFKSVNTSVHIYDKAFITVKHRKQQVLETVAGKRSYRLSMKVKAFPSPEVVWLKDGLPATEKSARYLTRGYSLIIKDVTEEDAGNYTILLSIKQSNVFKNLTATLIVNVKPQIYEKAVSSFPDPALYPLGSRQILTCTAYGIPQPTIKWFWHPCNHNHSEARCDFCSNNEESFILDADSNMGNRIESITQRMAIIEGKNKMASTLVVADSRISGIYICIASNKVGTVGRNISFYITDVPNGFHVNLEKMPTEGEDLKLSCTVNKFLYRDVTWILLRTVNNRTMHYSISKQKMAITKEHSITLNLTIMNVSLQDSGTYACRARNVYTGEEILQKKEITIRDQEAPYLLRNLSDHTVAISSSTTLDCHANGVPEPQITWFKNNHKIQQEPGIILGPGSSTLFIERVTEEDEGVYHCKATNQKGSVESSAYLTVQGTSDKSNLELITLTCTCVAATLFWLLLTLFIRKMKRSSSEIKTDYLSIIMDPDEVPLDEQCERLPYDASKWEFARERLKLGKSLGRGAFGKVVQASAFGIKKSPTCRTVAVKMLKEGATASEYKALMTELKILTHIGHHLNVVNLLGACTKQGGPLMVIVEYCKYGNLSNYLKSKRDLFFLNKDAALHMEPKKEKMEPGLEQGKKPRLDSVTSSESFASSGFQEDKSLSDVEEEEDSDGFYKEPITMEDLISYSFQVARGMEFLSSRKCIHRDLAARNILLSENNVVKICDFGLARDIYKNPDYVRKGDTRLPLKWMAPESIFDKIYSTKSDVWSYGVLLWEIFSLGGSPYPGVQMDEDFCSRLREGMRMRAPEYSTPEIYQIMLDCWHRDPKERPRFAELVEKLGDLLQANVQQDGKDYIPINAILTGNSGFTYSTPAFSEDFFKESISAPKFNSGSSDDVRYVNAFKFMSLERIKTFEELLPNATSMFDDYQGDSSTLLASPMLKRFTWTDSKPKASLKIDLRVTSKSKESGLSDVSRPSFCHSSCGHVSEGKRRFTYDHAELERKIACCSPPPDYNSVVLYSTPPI

[31] = tested on: Fibroblast growth factor receptor 3 (Homo sapiens), P22607 [G697C]; conditions: Compound concentration 1000.0 nM
[32] = biological target: Cyclin-dependent kinase 13 (Homo sapiens) (UniProt Q14004); conditions: Compound concentration 1000.0 nM
[33] = biological target: STE20/SPS1-related proline-alanine-rich protein kinase (Homo sapiens) (UniProt Q9UEW8); conditions: Compound concentration 1000.0 nM
[34] = biological target: Histamine H4 receptor (Homo sapiens) (UniProt Q9H3N8); conditions: Compound concentration 10.0 uM
[35] = biological target: Dual specificity mitogen-activated protein kinase kinase 4 (Homo sapiens) (UniProt P45985); conditions: Compound concentration 1000.0 nM
[36] = biological target: Dual specificity mitogen-activated protein kinase kinase 3 (Homo sapiens) (UniProt P46734); conditions: Compound concentration 1000.0 nM
[37] = biological target: SRSF protein kinase 1 (Homo sapiens) (UniProt Q96SB4); conditions: Compound concentration 1000.0 nM
[38] = tested on: Tyrosine-protein kinase ABL1 (Homo sapiens), P00519 [M351T]; conditions: Compound concentration 1000.0 nM
[39] = biological target: Ribosomal protein S6 kinase alpha-4 (Homo sapiens) (UniProt O75676); conditions: Compound concentration 1000.0 nM
[40] = biological target: Receptor tyrosine-protein kinase erbB-3 (Homo sapiens) (UniProt P21860); conditions: Compound concentration 1000.0 nM
[41] = biological target: cAMP-dependent protein kinase catalytic subunit alpha (Homo sapiens) (UniProt P17612); conditions: Compound concentration 1000.0 nM
[42] = biological target: Mitogen-activated protein kinase kinase kinase 6 (Homo sapiens) (UniProt O95382); conditions: Compound concentration 1000.0 nM
Sequence of Mitogen-activated protein kinase kinase kinase 6 (Homo sapiens) (O95382 whole entry): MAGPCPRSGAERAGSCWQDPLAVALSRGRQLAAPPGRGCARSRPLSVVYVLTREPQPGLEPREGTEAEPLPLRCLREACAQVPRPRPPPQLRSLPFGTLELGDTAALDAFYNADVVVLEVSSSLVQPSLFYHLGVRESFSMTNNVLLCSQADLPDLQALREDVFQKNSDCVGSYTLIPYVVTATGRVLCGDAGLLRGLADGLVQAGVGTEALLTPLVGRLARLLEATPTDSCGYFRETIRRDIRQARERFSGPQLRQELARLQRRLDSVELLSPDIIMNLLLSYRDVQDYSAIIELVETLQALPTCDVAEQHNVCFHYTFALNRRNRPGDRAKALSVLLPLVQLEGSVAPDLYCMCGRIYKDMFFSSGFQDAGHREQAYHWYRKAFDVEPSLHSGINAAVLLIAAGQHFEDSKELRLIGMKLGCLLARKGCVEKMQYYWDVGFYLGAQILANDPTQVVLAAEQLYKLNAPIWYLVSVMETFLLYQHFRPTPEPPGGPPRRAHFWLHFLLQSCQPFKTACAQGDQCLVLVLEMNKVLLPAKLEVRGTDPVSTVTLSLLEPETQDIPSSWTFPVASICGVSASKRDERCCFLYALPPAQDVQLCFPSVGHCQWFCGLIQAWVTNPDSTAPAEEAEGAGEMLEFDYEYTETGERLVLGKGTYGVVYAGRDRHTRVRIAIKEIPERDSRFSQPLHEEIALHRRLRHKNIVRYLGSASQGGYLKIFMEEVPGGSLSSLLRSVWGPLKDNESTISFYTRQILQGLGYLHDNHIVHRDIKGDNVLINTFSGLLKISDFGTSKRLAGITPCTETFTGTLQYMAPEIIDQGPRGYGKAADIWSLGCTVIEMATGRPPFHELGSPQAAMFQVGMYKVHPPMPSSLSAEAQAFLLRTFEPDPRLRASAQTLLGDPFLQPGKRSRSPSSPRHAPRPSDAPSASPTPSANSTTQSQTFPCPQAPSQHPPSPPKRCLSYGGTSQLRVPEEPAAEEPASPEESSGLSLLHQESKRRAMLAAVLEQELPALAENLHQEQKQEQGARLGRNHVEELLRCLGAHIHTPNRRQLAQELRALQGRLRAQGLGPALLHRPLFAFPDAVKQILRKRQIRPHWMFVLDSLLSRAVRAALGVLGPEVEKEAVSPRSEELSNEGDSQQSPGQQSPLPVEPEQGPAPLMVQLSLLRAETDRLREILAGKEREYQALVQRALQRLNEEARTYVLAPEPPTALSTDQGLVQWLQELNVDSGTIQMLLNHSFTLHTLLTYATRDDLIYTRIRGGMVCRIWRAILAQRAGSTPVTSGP

[43] = biological target: Fibroblast growth factor receptor 4 (Homo sapiens) (UniProt P22455); conditions: Compound concentration 1000.0 nM
[44] = biological target: Dual specificity protein kinase CLK4 (Homo sapiens) (UniProt Q9HAZ1); conditions: Compound concentration 1000.0 nM

COc1cccc(CNC(=O)c2nc3scc(COCc4ccc(C(=O)O)cc4)c3c(=O)[nH]2)c1 [T-26c]
inactive: residual activity [1] 76.8% | residual activity [2] 74.7% | residual activity [3] 70.2% | residual activity [4] 100% | residual activity [5] 100% | residual activity [6] 100% | residual activity [7] 66.1% | residual activity [8] 100% | residual activity [9] 100% | residual activity [10] 81.3% | inhibition [11] 12.5% | residual activity [12] 100% | inhibition [13] -3.64% | residual activity [14] 100% | residual activity [15] 76.7% | residual activity [16] 83.6% | residual activity [17] 80.5% | residual activity [18] 63.1% | inhibition [19] 11.9% | residual activity [20] 78.3% | inhibition [21] 10.5% | residual activity [22] 70.9% | residual activity [23] 87.3% | residual activity [24] 80.6% | residual activity [25] 98% | residual activity [26] 100% | residual activity [27] 68.6% | residual activity [28] 80.4% | residual activity [29] 100% | residual activity [30] 93.9% | residual activity [31] 80.2% | residual activity [32] 67.6% | residual activity [33] 100% | inhibition [34] 17.6% | residual activity [35] 59.7% | residual activity [36] 92.9% | residual activity [37] 100% | residual activity [38] 84.4% | residual activity [39] 82.3% | residual activity [40] 89.4% | residual activity [41] 100% | residual activity [42] 74.5% | residual activity [43] 91.4% | residual activity [44] 94.4%
